Experimental data taken from patent publication US20250281497A1, “FUSED AMINO PYRIMIDINE COMPOUNDS FOR TREATMENT OF SEIZURE DISORDERS” (Ovid Therapeutics Inc., priority 2024, published 2025).
Values joined by “and” are separate entries in the source; they are usually repeats but may differ in a detail not shown here. Identical values can stand only once.

Target: T1, KCC2 (Homo sapiens, UniProt Q9H2X9)
T1 construct: expressed in transfected cells; host or cells: HEK-293 (ATCC CRL-1573)
T1 sequence (Q9H2X9 1-1116 isoform Q9H2X9-2): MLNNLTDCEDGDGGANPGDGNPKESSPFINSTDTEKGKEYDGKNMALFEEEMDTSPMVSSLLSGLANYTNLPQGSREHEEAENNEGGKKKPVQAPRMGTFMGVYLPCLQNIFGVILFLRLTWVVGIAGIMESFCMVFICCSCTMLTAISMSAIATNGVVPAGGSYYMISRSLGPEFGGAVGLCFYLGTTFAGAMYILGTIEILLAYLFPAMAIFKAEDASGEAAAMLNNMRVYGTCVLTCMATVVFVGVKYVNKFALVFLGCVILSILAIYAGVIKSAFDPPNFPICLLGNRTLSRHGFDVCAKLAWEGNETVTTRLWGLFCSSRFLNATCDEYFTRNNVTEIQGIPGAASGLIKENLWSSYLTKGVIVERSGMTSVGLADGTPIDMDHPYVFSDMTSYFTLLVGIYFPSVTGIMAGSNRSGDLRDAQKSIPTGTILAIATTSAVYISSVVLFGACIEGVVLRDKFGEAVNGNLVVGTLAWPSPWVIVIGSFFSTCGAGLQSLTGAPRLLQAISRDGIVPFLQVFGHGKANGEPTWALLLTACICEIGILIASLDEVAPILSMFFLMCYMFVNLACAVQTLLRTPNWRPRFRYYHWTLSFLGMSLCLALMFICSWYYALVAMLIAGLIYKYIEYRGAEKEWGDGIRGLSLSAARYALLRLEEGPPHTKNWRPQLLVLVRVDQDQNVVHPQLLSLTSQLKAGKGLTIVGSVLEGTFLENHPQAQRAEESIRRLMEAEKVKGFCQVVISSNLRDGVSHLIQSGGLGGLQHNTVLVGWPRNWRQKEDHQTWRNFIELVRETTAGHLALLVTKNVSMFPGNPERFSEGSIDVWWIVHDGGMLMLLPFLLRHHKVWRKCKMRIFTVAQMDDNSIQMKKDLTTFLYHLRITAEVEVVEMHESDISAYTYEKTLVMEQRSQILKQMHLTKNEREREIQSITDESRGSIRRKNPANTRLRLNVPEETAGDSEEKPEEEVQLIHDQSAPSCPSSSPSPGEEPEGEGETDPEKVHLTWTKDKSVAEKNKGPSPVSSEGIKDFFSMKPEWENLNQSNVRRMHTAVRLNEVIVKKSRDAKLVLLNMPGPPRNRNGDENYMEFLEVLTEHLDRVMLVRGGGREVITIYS
Assay: FLIPR Tl+ flux assay, HEK-293 cells expressing KCC2
Format: cell-based
Experimental: A multi-tiered high-throughput screening assay was used, leveraging a proprietary library of 1.3 million small molecule compounds from AstraZeneca (Cambridge, UK) to identify chemical entities capable of activating KCC2. A single point concentration of 30 μM was used to identify potassium flux using an established thallium […] influx FLIPR assay as the primary read out in HEK-293 cells overexpressing KCC2 (Cardarelli et al., Nat. Med. 23, 1394-1396 (2017); Conway et al., J Biol Chem 292, 21253-21263 (2017); Lee et at, 2022, supra).
Cell Culture and biotinylation. […]
FLIPR TI Flux assay. HEK-293 cells were washed with HBSS, and then incubated with loading buffer containing TI sensitive fluorescent dye (https://www.moleculardevices.com), 20 μM bumetanide 20 μM ouabain and 2.5 mM probenecid for 1 h at room temperature (RT) under control conditions or with drugs in the dark using a FlexStation 3 microplate reader (Molecular Devices) and imaged […] for 30 min. Stimulus buffer was added containing 5 mM K^+/0.5 mM Tl^+ and cells were imaged every 1.5 over a 190 second time course The initial rate Tl^+ uptake (Relative Fluorescence Units (RFU) per second) was determined following addition of the stimulus buffer as outlined previously (Conway et at, 2017, supra) (Lee et at, 2022, supra). […]

For `C[C@@H]1CN(c2nc3c(c(Nc4ccc(C5CCCCC5)cc4)n2)COC3)CCO1` [Compound A, (R)—N-(4-cyclohexylphenyl)-2-(2-methylmorpholino)-5,7-dihydrofuro[3,4-d]pyrimidin-4-amine], the EC50 (HEK-293 cells expressing KCC2, 1% β-cyclodextrin vehicle, read-out: EC50 for KCC2 as measured by Tl+ flux) was 260 nM and 261 nM and the “maximum potentiation of KCC2” value (saturating concentration of 3 μM, 1% BCD vehicle) was 90%.
